According to article PMC10337138 (Acta Neuropathologica Communications, 2023):

Assays:
Details in all cases: 1 mM ATP; inhibitor
CAMK2D = CAMK2D (Homo sapiens, UniProt Q13557)
Procedure: (§1) Kinase selectivity panel Kinome profiling was conducted by AssayQuant Technologies (Marlboro, MA) using Sox chromophore technology and Sox-based peptide substrates developed for human kinases in a 384-well format. Compounds were tested at 1 µM in the presence of 1 mM ATP.

CAMKK2 = CAMKK2 (Homo sapiens, UniProt Q96RR4)
Procedure: as §1

CDK9/T1 = CDK9/T1 (Homo sapiens, UniProt P50750)
Procedure: as §1

DAPK3 = DAPK3 (Homo sapiens, UniProt O43293)
Procedure: as §1

DDR2 = DDR2 (Homo sapiens, UniProt Q16832)
Sequence of DDR2 (Q16832 whole entry): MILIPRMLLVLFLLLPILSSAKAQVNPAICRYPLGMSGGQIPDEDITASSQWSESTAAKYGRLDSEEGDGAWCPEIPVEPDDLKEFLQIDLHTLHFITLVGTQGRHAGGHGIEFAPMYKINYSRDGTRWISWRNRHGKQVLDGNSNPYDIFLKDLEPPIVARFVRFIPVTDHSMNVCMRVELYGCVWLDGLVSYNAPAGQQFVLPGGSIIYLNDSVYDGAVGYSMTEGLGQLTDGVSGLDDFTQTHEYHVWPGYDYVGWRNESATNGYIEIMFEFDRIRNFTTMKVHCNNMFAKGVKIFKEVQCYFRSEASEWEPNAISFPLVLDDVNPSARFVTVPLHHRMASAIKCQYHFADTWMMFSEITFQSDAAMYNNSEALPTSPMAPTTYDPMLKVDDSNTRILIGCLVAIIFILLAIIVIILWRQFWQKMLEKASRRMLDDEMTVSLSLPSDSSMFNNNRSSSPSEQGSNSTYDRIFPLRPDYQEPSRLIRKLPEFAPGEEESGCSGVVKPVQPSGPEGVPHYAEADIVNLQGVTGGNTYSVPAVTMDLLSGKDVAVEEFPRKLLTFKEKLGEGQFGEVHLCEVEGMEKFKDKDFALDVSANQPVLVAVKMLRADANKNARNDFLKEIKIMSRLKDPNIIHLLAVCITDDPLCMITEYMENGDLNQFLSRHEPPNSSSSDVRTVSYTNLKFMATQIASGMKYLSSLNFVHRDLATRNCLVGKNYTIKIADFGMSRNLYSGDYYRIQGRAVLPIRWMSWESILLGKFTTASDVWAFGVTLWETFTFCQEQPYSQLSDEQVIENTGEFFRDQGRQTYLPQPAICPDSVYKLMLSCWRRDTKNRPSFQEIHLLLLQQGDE
Procedure: as §1

DYRK2 = DYRK2 (Homo sapiens, UniProt Q92630)
Procedure: as §1

EIF2AK4/GCN2 = EIF2AK4/GCN2 (Homo sapiens, UniProt Q9P2K8)
Procedure: as §1

EPHA8 = EPHA8 (Homo sapiens, UniProt P29322)
Procedure: as §1

EPHB3 = EPHB3 (Homo sapiens, UniProt P54753)
Procedure: as §1

FAM20C = FAM20C (Homo sapiens, UniProt Q8IXL6)
Procedure: as §1

FLT4 = FLT4 (Homo sapiens, UniProt P35916)
Sequence of FLT4 (P35916 whole entry): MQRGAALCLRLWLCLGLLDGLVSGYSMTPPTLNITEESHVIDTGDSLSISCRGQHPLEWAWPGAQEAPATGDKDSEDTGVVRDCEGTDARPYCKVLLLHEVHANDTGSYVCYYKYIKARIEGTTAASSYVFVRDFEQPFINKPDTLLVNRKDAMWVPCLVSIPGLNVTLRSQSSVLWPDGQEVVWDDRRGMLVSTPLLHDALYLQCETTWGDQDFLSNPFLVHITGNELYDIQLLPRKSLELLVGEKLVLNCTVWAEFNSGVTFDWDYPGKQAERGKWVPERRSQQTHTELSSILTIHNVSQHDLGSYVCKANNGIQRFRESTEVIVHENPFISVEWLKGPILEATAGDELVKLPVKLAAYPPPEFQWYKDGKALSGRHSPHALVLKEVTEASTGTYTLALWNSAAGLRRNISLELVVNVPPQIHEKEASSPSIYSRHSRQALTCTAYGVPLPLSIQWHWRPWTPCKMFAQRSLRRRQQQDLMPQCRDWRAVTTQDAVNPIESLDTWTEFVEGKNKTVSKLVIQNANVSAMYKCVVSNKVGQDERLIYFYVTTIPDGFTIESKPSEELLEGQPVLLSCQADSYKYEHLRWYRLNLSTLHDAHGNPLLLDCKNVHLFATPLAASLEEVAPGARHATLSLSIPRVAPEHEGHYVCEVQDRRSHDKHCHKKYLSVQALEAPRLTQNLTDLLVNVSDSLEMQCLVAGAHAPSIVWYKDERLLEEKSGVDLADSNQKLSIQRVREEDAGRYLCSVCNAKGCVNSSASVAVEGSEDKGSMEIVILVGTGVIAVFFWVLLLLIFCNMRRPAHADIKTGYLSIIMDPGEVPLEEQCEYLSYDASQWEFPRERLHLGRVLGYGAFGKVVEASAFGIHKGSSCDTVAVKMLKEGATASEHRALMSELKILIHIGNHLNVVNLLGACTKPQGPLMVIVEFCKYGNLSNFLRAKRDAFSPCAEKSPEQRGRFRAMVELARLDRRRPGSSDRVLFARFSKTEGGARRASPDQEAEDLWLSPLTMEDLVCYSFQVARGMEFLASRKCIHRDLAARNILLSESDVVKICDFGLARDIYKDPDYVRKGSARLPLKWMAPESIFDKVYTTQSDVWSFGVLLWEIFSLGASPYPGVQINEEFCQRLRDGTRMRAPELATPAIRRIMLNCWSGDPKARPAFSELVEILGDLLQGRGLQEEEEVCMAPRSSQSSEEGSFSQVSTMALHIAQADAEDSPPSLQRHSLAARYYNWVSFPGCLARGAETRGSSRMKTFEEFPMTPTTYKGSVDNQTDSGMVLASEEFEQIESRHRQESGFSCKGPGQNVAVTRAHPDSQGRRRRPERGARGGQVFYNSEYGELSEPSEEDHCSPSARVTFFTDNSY
Procedure: as §1

GRK4 = GRK4 (Homo sapiens, UniProt P32298)
Procedure: as §1

GSK3B = GSK3B (Homo sapiens, UniProt P49841)
Procedure: as §1

LATS1 = LATS1 (Homo sapiens, UniProt O95835)
Sequence of LATS1 (O95835 whole entry): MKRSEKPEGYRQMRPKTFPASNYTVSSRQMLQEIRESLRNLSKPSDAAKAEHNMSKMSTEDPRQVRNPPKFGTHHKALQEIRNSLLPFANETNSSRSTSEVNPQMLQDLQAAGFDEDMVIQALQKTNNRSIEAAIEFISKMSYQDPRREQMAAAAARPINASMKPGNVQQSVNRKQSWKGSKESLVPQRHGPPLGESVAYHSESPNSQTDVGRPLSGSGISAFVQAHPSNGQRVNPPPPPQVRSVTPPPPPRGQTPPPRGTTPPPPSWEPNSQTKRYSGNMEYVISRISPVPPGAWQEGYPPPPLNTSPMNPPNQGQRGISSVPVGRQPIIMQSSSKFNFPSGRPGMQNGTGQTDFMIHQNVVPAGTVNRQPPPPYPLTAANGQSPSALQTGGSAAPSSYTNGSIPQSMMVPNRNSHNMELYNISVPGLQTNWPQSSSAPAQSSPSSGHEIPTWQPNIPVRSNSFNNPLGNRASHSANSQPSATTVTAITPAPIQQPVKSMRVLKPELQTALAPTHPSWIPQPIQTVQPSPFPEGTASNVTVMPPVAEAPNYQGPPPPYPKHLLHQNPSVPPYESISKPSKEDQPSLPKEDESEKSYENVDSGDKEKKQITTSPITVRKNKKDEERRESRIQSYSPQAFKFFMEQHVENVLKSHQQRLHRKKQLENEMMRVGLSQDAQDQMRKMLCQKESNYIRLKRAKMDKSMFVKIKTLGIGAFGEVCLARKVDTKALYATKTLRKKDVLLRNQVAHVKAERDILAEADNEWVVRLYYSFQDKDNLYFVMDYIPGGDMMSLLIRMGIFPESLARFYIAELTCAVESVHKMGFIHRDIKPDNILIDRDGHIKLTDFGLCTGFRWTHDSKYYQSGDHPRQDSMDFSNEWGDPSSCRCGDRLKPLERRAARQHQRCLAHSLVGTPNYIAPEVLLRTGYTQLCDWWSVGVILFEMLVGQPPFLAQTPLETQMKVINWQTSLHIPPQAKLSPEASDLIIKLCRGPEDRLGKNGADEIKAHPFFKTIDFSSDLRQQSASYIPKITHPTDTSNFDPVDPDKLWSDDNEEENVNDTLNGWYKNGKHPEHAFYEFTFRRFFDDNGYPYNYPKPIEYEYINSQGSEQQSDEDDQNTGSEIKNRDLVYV
Procedure: as §1

MAP2K1/MEK1 = MAP2K1/MEK1 (Homo sapiens, UniProt Q02750)
Procedure: as §1

MAP3K10 = MAP3K10 (Homo sapiens, UniProt Q02779)
Procedure: as §1

MAP3K2 = MAP3K2 (Homo sapiens, UniProt Q9Y2U5)
Procedure: as §1

MAPK11/P38B = MAPK11/P38B (Homo sapiens, UniProt Q15759)
Procedure: as §1

MAPK12/P38G = MAPK12/P38G (Homo sapiens, UniProt P53778)
Procedure: as §1

MLK4 = molecular target: T1, MLK4 (Homo sapiens, UniProt Q5TCX8)
T1 construct: gene MAP3K21
T1 sequence (Q5TCX8 whole entry): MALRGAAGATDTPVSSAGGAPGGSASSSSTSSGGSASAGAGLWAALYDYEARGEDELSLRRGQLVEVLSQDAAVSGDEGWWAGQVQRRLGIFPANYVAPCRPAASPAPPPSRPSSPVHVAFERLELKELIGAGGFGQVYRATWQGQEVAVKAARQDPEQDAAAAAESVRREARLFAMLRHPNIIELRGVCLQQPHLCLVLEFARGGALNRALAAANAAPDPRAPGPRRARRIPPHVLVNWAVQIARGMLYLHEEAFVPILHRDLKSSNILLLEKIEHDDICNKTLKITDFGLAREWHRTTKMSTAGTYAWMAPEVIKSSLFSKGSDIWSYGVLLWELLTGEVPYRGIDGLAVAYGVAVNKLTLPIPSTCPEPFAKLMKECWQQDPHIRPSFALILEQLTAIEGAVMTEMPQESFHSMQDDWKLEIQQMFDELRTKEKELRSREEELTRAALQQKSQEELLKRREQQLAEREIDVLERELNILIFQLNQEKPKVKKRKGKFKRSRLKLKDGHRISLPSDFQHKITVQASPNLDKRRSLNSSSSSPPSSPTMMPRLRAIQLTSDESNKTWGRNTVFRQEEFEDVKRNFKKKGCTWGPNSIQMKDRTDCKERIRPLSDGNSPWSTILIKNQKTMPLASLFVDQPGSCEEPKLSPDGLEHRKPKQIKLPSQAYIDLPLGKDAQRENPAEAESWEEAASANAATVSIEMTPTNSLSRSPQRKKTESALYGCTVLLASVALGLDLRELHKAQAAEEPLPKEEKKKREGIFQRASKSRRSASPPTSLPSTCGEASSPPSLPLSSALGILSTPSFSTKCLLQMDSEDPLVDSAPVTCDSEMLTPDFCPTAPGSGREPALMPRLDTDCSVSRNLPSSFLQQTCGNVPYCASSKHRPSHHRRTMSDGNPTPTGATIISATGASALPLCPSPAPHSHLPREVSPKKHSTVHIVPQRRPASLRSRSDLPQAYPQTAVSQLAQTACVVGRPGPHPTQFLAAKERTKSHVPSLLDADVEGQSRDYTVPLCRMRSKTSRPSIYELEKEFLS
Procedure: as §1

MUSK = MUSK (Homo sapiens, UniProt O15146)
Procedure: as §1

NDR2 = molecular target: T2, NDR2 (Homo sapiens, UniProt Q9Y2H1)
T2 construct: gene STK38L
Procedure: as §1

NEK5 = NEK5 (Homo sapiens, UniProt Q6P3R8)
Procedure: as §1

NEK7 = NEK7 (Homo sapiens, UniProt Q8TDX7)
Procedure: as §1

NTRK1 = NTRK1 (Homo sapiens, UniProt P04629)
Procedure: as §1

NTRK2/TRKB = NTRK2/TRKB (Homo sapiens, UniProt Q16620)
Procedure: as §1

PAK2 = PAK2 (Homo sapiens, UniProt Q13177)
Sequence of PAK2 (Q13177 whole entry): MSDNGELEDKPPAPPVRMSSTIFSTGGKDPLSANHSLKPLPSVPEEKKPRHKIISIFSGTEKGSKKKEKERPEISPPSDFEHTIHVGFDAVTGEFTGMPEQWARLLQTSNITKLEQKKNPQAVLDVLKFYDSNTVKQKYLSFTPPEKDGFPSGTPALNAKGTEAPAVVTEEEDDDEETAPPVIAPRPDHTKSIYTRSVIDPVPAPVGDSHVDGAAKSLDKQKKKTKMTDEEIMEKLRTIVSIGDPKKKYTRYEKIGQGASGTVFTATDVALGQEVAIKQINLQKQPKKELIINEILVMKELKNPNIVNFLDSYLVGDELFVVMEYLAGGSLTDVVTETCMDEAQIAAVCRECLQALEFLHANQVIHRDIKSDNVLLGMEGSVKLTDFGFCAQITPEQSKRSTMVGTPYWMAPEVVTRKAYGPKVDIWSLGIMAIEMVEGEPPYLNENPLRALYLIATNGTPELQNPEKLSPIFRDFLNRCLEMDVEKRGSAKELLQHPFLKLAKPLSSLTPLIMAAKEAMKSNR
Procedure: as §1

PRKDC/DNA-PK = PRKDC/DNA-PK (Homo sapiens, UniProt P78527)
Procedure: as §1

PTK2B = PTK2B (Homo sapiens, UniProt Q14289)
Procedure: as §1

ROCK1 = ROCK1 (Homo sapiens, UniProt Q13464)
Procedure: as §1

SIK1 = SIK1 (Homo sapiens, UniProt P57059)
Procedure: as §1

STK26/MST4 = STK26/MST4 (Homo sapiens, UniProt Q9P289)
Procedure: as §1

TEC = TEC (Homo sapiens, UniProt P42680)
Procedure: as §1

TEK/TIE2 = TEK/TIE2 (Homo sapiens, UniProt Q02763)
Procedure: as §1

TSSK1 = molecular target: T3, TSSK1 (Homo sapiens, UniProt Q9BXA7)
T3 construct: gene TSSK1B
Procedure: as §1

TSSK2 = TSSK2 (Homo sapiens, UniProt Q96PF2)
Procedure: as §1

TSSK3 = TSSK3 (Homo sapiens, UniProt Q96PN8)
Procedure: as §1

ULK1 = ULK1 (Homo sapiens, UniProt O75385)
Procedure: as §1

ULK3 = ULK3 (Homo sapiens, UniProt Q6PHR2)
Procedure: as §1

In the case of `C=CC(=O)N1CCC[C@@H](n2nc(-c3ccc(Oc4ccccc4)cc3)c3c(N)ncnc32)C1` [Ibrutinib], the “1 µM GBD00276 (ibrutinib), % inhibition” value (CAMK2D) is reported as 12.33%, the “1 µM GBD00276 (ibrutinib), % inhibition” value (CAMKK2) is reported as 2.203% and the “1 µM GBD00276 (ibrutinib), % inhibition” value (CDK9/T1) is reported as -10.19%. The “1 µM GBD00276 (ibrutinib), % inhibition” value (DAPK3) was -3.598%, the “1 µM GBD00276 (ibrutinib), % inhibition” value (DDR2) was 20.22% and the “1 µM GBD00276 (ibrutinib), % inhibition” value (DYRK2) was 14.5%. The “1 µM GBD00276 (ibrutinib), % inhibition” value (EIF2AK4/GCN2) was -3.934%, the “1 µM GBD00276 (ibrutinib), % inhibition” value (EPHA8) was 15.21% and the “1 µM GBD00276 (ibrutinib), % inhibition” value (EPHB3) was 8.156%. The “1 µM GBD00276 (ibrutinib), % inhibition” value (FAM20C) was 3.541%, the “1 µM GBD00276 (ibrutinib), % inhibition” value (FLT4) was 38.81% and the “1 µM GBD00276 (ibrutinib), % inhibition” value (GRK4) was 18.83%. The “1 µM GBD00276 (ibrutinib), % inhibition” value (GSK3B) was 9.125%, the “1 µM GBD00276 (ibrutinib), % inhibition” value (LATS1) was 11.97% and the “1 µM GBD00276 (ibrutinib), % inhibition” value (MAP2K1/MEK1) was -19%. For the same compound, the “1 µM GBD00276 (ibrutinib), % inhibition” value (MAP3K10) was -7.966%, the “1 µM GBD00276 (ibrutinib), % inhibition” value (MAP3K2) was 6.175% and the “1 µM GBD00276 (ibrutinib), % inhibition” value (MAPK11/P38B) was -0.6084%. The “1 µM GBD00276 (ibrutinib), % inhibition” value (MAPK12/P38G) was 1.971%, the “1 µM GBD00276 (ibrutinib), % inhibition” value (MLK4) was 4.614% and the “1 µM GBD00276 (ibrutinib), % inhibition” value (MUSK) was 8.501%. For the same compound, the “1 µM GBD00276 (ibrutinib), % inhibition” value (NDR2) was 11.14%, the “1 µM GBD00276 (ibrutinib), % inhibition” value (NEK5) was 12.71% and the “1 µM GBD00276 (ibrutinib), % inhibition” value (NEK7) was -0.8851%. The “1 µM GBD00276 (ibrutinib), % inhibition” value (NTRK1) was 11.58%, the “1 µM GBD00276 (ibrutinib), % inhibition” value (NTRK2/TRKB) was 21.53% and the “1 µM GBD00276 (ibrutinib), % inhibition” value (PAK2) was 28.3%. For the same compound, the “1 µM GBD00276 (ibrutinib), % inhibition” value (PRKDC/DNA-PK) was 1.018%, the “1 µM GBD00276 (ibrutinib), % inhibition” value (PTK2B) was 21.97% and the “1 µM GBD00276 (ibrutinib), % inhibition” value (ROCK1) was 3.894%. The “1 µM GBD00276 (ibrutinib), % inhibition” value (SIK1) was 2.135%, the “1 µM GBD00276 (ibrutinib), % inhibition” value (STK26/MST4) was -9.161% and the “1 µM GBD00276 (ibrutinib), % inhibition” value (TEC) was 98.943%. For the same compound, the “1 µM GBD00276 (ibrutinib), % inhibition” value (TEK/TIE2) was 2.512%, the “1 µM GBD00276 (ibrutinib), % inhibition” value (TSSK1) was 5.621% and the “1 µM GBD00276 (ibrutinib), % inhibition” value (TSSK2) was 9.261%. For the same compound, the “1 µM GBD00276 (ibrutinib), % inhibition” value (TSSK3) was -3.43%, the “1 µM GBD00276 (ibrutinib), % inhibition” value (ULK1) was -8.778% and the “1 µM GBD00276 (ibrutinib), % inhibition” value (ULK3) was 2.341%.
